Earlier results, collected in US20210319872A1, “DRUG AND DEVICE COMBINATION PRODUCTS WITH IMPROVED SAFETY AND EFFICACY PROFILES” (priority 2016, published 2021).

Conditions: in vivo

COc1ccc2c3c1O[C@H]1C(=O)CC[C@H]4[C@@H](C2)N(C)CC[C@]314.O=C(O)C(O)C(O)C(=O)O [Hysingla ER]
Abdominal pain: Gastrointestinal: Abdominal pain (1% to less than 5%),
Constipation: Constipation (3% to 11%), Nausea (7% to 10%), Vomiting (3% to
Difficulty swallowing: Gastrointestinal: Difficulty swallowing (less than 1%)
Dizziness: Neurologic: Dizziness (2% to 3%), Headache (2% to 4%),
Fatigue: Other: Fatigue (1% to 4%)
Headache: Neurologic: Dizziness (2% to 3%), Headache (2% to 4%),
Hypotension: Cardiovascular: Hypotension (less than 1%), Orthostatic
Opioid withdrawal: Opioid withdrawal (less than 1%)
Orthostatic hypotension: hypotension (less than 1%), Prolonged QT interval, Syncope
Peripheral edema: Cardiovascular: Peripheral edema (1% to less than 5%%)
Pruritus: Dermatologic: Pruritus (0% to less than 5%)
Serious side effect, Cardiovascular: hypotension (less than 1%), Prolonged QT interval, Syncope
Serious side effect, Neurologic: Neurologic: Raised intracranial pressure, Seizure
Serious side effect, Other: Other: Drug withdrawal syndrome in neonate of dependent mother,
Serious side effect, Respiratory: Respiratory: Respiratory depression
Somnolence: Somnolence (1% to 5%), Tremor (3%)
Spasm: Musculoskeletal: Spasm (1% to less than 5%)
Tremor: Somnolence (1% to 5%), Tremor (3%)
Upper respiratory infection: Respiratory: Upper respiratory infection (1% to 3%)
Urinary tract infectious disease: Renal: Urinary tract infectious disease (1% to 5%)
Xerostomia: 6%), Xerostomia (1% to less than 5%)

CC1Cc2ccccc2N1NC(=O)c1ccc(Cl)c(S(N)(=O)=O)c1 (centres unmarked) [Indapamide (Lozol)]
Dizziness (incidence): Neurologic: Asthenia, Dizziness (Greater than or equal to 5%),
Headache (incidence): Headache (Greater than or equal to 5%), Lethargy, Numbness
Hypokalemia (incidence): Endocrine metabolic: Hypokalemia (3% to 7%)

O=C1CN=C(c2ccccc2Cl)c2cc([N+](=O)[O-])ccc2N1 [Klonopin (clonazepam)]
Ataxia: Neurologic: Ataxia (5% to 30%), Coordination problem (6%),
Coordination problem: Neurologic: Ataxia (5% to 30%), Coordination problem (6%),
Depression: Psychiatric: Depression (7%), Suicidal thoughts
Dizziness: Dizziness (8%), Somnolence (37% to 50%)
Fatigue: Other: Fatigue (7%)
Problem behavior: Psychiatric: Problem behavior (25%)
Serious side effect, Psychiatric: Psychiatric: Depression (7%), Suicidal thoughts
Serious side effect, Respiratory: Respiratory: Respiratory depression
Somnolence: Dizziness (8%), Somnolence (37% to 50%)
Upper respiratory infection: Respiratory: Upper respiratory infection (8%)

C[C@H](O)[C@H](O)[C@H]1CNc2[nH]c(N)nc(=O)c2N1.Cl.Cl [Kuvan]
Cough: Respiratory: Cough (4% or more), Nasal congestion (4% or more),
Diarrhea: Gastrointestinal: Diarrhea (4% or more), Vomiting (4% or more)
Headache: Neurologic: Headache (4% or greater)
Nasal congestion: Respiratory: Cough (4% or more), Nasal congestion (4% or more),
Nasal discharge: Nasal discharge (4% or more), Pain in throat (4% or more), Upper
Pain in throat: Nasal discharge (4% or more), Pain in throat (4% or more), Upper
Serious side effect, Cardiovascular: Cardiovascular: Myocardial infarction
Serious side effect, Gastrointestinal: Gastrointestinal: Gastrointestinal hemorrhage
Serious side effect, Hematologic: Hematologic: Hemorrhage, Post-procedural
Serious side effect, Neurologic: Neurologic: Seizure
Serious side effect, Respiratory: Respiratory: Respiratory failure
Upper respiratory infection: respiratory infection (17%)
Vomiting: Gastrointestinal: Diarrhea (4% or more), Vomiting (4% or more)
